Values quoted from earlier work, collected in patent US11185565B2, “Compositions including milk thistle and methods of use” (GM Pharmaceuticals, Inc., priority 2019, dated 2021).

Key:
[1] = additional chromium in drinking water; obese and insulin resistant mammals
[2] = addition of chromium to carbohydrate-rich meals
[3] = deficiency in PQQ, mammals

SMILES | glucose disposal rates and insulin-stimulated signaling in skeletal muscles [1] | reduction in blood sugar after the carbohydrate-rich meals [2] [%] | decrease in metabolic rate [3] [%]
[Cr] [chromium] | significantly improved | > 20 | 
O=C(O)c1cc(C(=O)O)c2c(n1)C(=O)C(=O)c1cc(C(=O)O)[nH]c1-2.[Na].[Na] [PQQ, pyrroloquinoline quinone disodium] |  |  | ~10
